# Values quoted from earlier work in paper PMC7395068, “The evolution of strategies to minimise the risk of human drug-induced liver injury (DILI) in drug discovery and development” (Archives of Toxicology, 2020).
# Like-named read-outs stand apart in the source and are kept apart here. *1 amine or outer side, *2 acyl side, *3 side chain or, on linkers, in order; H or OH if unused. Where a SMILES comes first, the peptide text is derived from it. Bridges are numbered along the chain shown (N, C = ends). Roman numbers before positions name the chains, in order. [ ]: non-standard residue; d: D form. Actinocin(9to1) = Cc1c2oc3c(C)ccc(C(=O)[*:1])c3nc-2c(C(=O)[*:2])c(N)c1=O; NMeV = CN[C@H](C(=O)O)C(C)C; Sar = CNCC(=O)O
# Columns and labels:
# [1] = cited from earlier work
# [2] = cited from earlier work; remark: listed apart in the source
# [3] = assignment in O'Brien 2006, ref O'Brien 2006
compound,measurement,setting,value
Cl.N [ammonium chloride],"DILI +VE (5-8), DILI -VE (-4)",[1]; in vivo,-VE
same,DILI severity category,[1]; in vivo,vNo-DILI-Concern
same,In vivo DILI,[2]; in vivo,-VE
C[C@H]1[C@H](NC(=O)/C(=N\OC(C)(C)C(=O)O)c2csc(N)n2)C(=O)N1S(=O)(=O)O [aztreonam],"DILI +VE (5-8), DILI -VE (-4)",[1]; in vivo,-VE
same,DILI severity category,[1]; in vivo,Ambiguous DILI-concern
same,In vivo DILI,[2]; in vivo,-VE
Oc1ccc2c(c1)[C@@]13CCCC[C@@]1(O)[C@@H](C2)N(CC1CCC1)CC3 [butorphanol],"DILI +VE (5-8), DILI -VE (-4)",[1]; ref Chen 2016,-VE
same,DILI severity category,[1]; ref Chen 2016,vNo-DILI-Concern
same,In vivo DILI,[2]; […],-VE
CCN1CCN(C(=O)N[C@@H](C(=O)N[C@@H]2C(=O)N3C(C(=O)O)=C(CSc4nnnn4C)CS[C@H]23)c2ccc(O)cc2)C(=O)C1=O [cefoperazone],"DILI +VE (5-8), DILI -VE (-4)",[1]; in vivo,+VE
same,DILI severity category,[1]; in vivo,vLess-DILI-Concern
same,In vivo DILI,[2]; in vivo,-VE
CO/N=C(\C(=O)N[C@@H]1C(=O)N2C(C(=O)O)=C(CSc3nc(=O)c(=O)[nH]n3C)CS[C@H]12)c1csc(N)n1 [ceftriaxone],"DILI +VE (5-8), DILI -VE (-4)",[1]; ref Chen 2016,+VE
same,DILI severity category,[1]; ref Chen 2016,vLess-DILI-Concern
same,In vivo DILI,[2]; […],-VE
O=C(N[C@H](CO)[C@H](O)c1ccc([N+](=O)[O-])cc1)C(Cl)Cl [chloramphenicol],"DILI +VE (5-8), DILI -VE (-4)",[1]; in vivo,-VE
same,DILI severity category,[1]; in vivo,vNo-DILI-Concern
same,In vivo DILI,[2]; in vivo,+VE
O=C1CCc2cc(OCCCCc3nnnn3C3CCCCC3)ccc2N1 [cilostazol],"DILI +VE (5-8), DILI -VE (-4)",[1]; ref Chen 2016,-VE
same,DILI severity category,[1]; ref Chen 2016,Ambiguous DILI-concern
same,In vivo DILI,[2]; […],-VE
"Cc1c2oc3c(C)ccc(C(=O)N[C@@H]4C(=O)N[C@H](C(C)C)C(=O)N5CCC[C@H]5C(=O)N(C)CC(=O)N(C)[C@@H](C(C)C)C(=O)O[C@@H]4C)c3nc-2c(C(=O)N[C@@H]2C(=O)N[C@H](C(C)C)C(=O)N3CCC[C@H]3C(=O)N(C)CC(=O)N(C)[C@@H](C(C)C)C(=O)O[C@@H]2C)c(N)c1=O [dactinomycin] (I: T[dV]P[Sar][NMeV] / II: T[dV]P[Sar][NMeV]; ester I:1-I:C, II:1-II:C; linker I:N-II:N via Actinocin(9to1))","DILI +VE (5-8), DILI -VE (-4)",[1]; in vivo,+VE
same,DILI severity category,[1]; in vivo,vMost-DILI-Concern
same,In vivo DILI,[2]; in vivo,+VE
CN(CCOc1ccc(NS(C)(=O)=O)cc1)CCc1ccc(NS(C)(=O)=O)cc1 [dofetilide],"DILI +VE (5-8), DILI -VE (-4)",[1]; in vivo,-VE
same,DILI severity category,[1]; in vivo,vNo-DILI-Concern
same,In vivo DILI,[2]; in vivo,-VE
C[C@]12CC[C@@H]3c4ccc(O)cc4CC[C@H]3[C@@H]1CCC2=O [estrone],"DILI +VE (5-8), DILI -VE (-4)",[1]; in vivo,-VE
same,DILI severity category,[1]; in vivo,Ambiguous DILI-concern
same,In vivo DILI,[2]; in vivo,+VE
CC(O)(P(=O)(O)O)P(=O)(O)O [etidronic acid],"DILI +VE (5-8), DILI -VE (-4)",[1]; ref Chen 2016,-VE
same,DILI severity category,[1]; ref Chen 2016,vNo-DILI-Concern
same,In vivo DILI,[2]; […],-VE
CC(C)n1c(/C=C/C(O)CC(O)CC(=O)O)c(-c2ccc(F)cc2)c2ccccc21 (centres unmarked) [fluvastatin],"DILI +VE (5-8), DILI -VE (-4)",[1]; ref Chen 2016,+VE
same,DILI severity category,[1]; ref Chen 2016,vLess-DILI-Concern
same,In vivo DILI,[2]; ref O'Brien 2006,-VE
same,In vivo DILI,[2]; ref Xu 2008,-VE
Nc1nnc(-c2cccc(Cl)c2Cl)c(N)n1 [lamotrigine],"DILI +VE (5-8), DILI -VE (-4)",[1]; ref Chen 2016,+VE
same,DILI severity category,[1]; ref Chen 2016,vMost-DILI-Concern
same,In vivo DILI,[2]; […],+VE
CCNC(=O)[C@@H]1CCCN1C(=O)[C@H](CCCNC(=N)N)NC(=O)[C@H](CC(C)C)NC(=O)[C@@H](CC(C)C)NC(=O)[C@H](Cc1ccc(O)cc1)NC(=O)[C@H](CO)NC(=O)[C@H](Cc1c[nH]c2ccccc12)NC(=O)[C@H](Cc1c[nH]cn1)NC(=O)[C@@H]1CCC(=O)N1 [leuprolide],In vivo DILI,[2]; in vivo,-VE
Cc1cccc(O)c1 [m-cresol],In vivo DILI,[2]; in vivo,+VE
O=C(O)CC(=O)O [malonic acid],In vivo DILI,[2]; in vivo,+VE
Cc1cccc(CN2CCN(C(c3ccccc3)c3ccc(Cl)cc3)CC2)c1 (centres unmarked) [meclizine],"DILI +VE (5-8), DILI -VE (-4)",[1]; ref Chen 2016,-VE
same,DILI severity category,[1]; ref Chen 2016,vNo-DILI-Concern
same,In vivo DILI,[2]; […],-VE
Cc1coc2c1CCC(C)C2 (centres unmarked) [menthofuran],In vivo DILI,[2]; […],+VE
CCOC(=O)C1(c2ccccc2)CCN(C)CC1 [meperidine],"DILI +VE (5-8), DILI -VE (-4)",[1]; in vivo,-VE
same,DILI severity category,[1]; in vivo,vNo-DILI-Concern
same,In vivo DILI,[2]; in vivo,-VE
Cc1cccc(C)c1NC(=O)C1CCCCN1C (centres unmarked) [mepivacaine],"DILI +VE (5-8), DILI -VE (-4)",[1]; ref Chen 2016,-VE
same,DILI severity category,[1]; ref Chen 2016,vNo-DILI-Concern
same,In vivo DILI,[2]; […],-VE
C[C@@H](O)[C@H]1C(=O)N2C(C(=O)O)=C(S[C@@H]3CN[C@H](C(=O)N(C)C)C3)[C@H](C)[C@H]12 [meropenem],"DILI +VE (5-8), DILI -VE (-4)",[1]; ref Chen 2016,+VE
same,DILI severity category,[1]; ref Chen 2016,vLess-DILI-Concern
same,In vivo DILI,[2]; […],+VE
C#C[C@]1(O)CC[C@H]2[C@@H]3CCc4cc(OC)ccc4[C@H]3CC[C@@]21C [mestranol],In vivo DILI,[2]; […],-VE
C[C@H](N)[C@H](O)c1cccc(O)c1 [metaraminol],In vivo DILI,[2]; […],-VE
CBr [methyl bromide],In vivo DILI,[2]; […],-VE
CC[C@@]1([C@@H]2O[C@@H]([C@H]3O[C@@](O)(CO)[C@H](C)C[C@@H]3C)C[C@@H]2C)CC[C@H]([C@]2(C)CC[C@]3(C[C@H](O)[C@@H](C)[C@@H]([C@@H](C)[C@@H](OC)[C@H](C)C(=O)O)O3)O2)O1 [monensin],In vivo DILI,[2]; in vivo,+VE
O=C(O)CC[N+](=O)[O-] [nitroproprionic acid],In vivo DILI,[2]; [3],+VE
CN(C)N=O [nitrosodimethylamine],In vivo DILI,[2]; [3],+VE
NC(=O)N1c2ccccc2CC(=O)c2ccccc21 [oxcarbazeptin],In vivo DILI,[2]; ref Schadt 2015,+VE
CCCCC1C(=O)N(c2ccccc2)N(c2ccc(O)cc2)C1=O (centres unmarked) [oxyphenbutazone],In vivo DILI,[2]; […],+VE
CC(N)C(O)c1ccccc1 (centres unmarked) [phenylpropanolamine],In vivo DILI,[2]; in vivo,-VE
COc1ccc(CN(CCN(C)C)c2ccccn2)cc1 [pyrilamine],In vivo DILI,[2]; […],-VE
CC(C)[C@@]1(O)[C@@H](OC(=O)c2ccc[nH]2)[C@@]2(O)[C@@]3(C)C[C@]4(O)O[C@@]5([C@H](O)[C@@H](C)CC[C@]35O)[C@@]2(O)[C@@]14C [ryanodine],In vivo DILI,[2]; [3],+VE
[Na+].[OH-] [sodium hydroxide],In vivo DILI,[2]; [3],+VE
COc1ncnc(NS(=O)(=O)c2ccc(N)cc2)c1OC [sulfadoxine],In vivo DILI,[2]; […],-VE
C[C@H](CCC(=O)NCCS(=O)(=O)O)[C@H]1CC[C@H]2[C@@H]3[C@H](O)C[C@@H]4C[C@H](O)CC[C@]4(C)[C@H]3C[C@H](O)[C@]12C [taurocholic],In vivo DILI,[2]; [3],+VE
C[C@H](CCC(=O)NCCS(=O)(=O)O)[C@H]1CC[C@H]2[C@@H]3CC[C@@H]4C[C@H](O)CC[C@]4(C)[C@H]3C[C@H](O)[C@]12C [taurodeoycholic],In vivo DILI,[2]; [3],+VE
C[C@H](CCC(=O)NCCS(=O)(=O)O)[C@H]1CC[C@H]2[C@@H]3CC[C@@H]4C[C@H](O)CC[C@]4(C)[C@H]3CC[C@]12C [taurolithocholic],In vivo DILI,[2]; [3],+VE
C[N+]1(C)[C@@H]2C[C@@H](OC(=O)C(O)(c3cccs3)c3cccs3)C[C@H]1[C@@H]1O[C@@H]12 [tiotropium],In vivo DILI,[2]; in vivo,-VE
C[C@]12C=CC(=O)C=C1CC[C@H]1[C@@H]3C[C@@H](O)[C@](O)(C(=O)CO)[C@@]3(C)C[C@H](O)[C@@]12F [triamcinolone],In vivo DILI,[2]; […],-VE
ClC=C(Cl)Cl [trichloroethylene],In vivo DILI,[2]; [3],+VE
dichloroethylene,In vivo DILI,[2]; [3],+VE
hemin,In vivo DILI,[2]; […],-VE
